Assays:
corn = experiment: Test A pre-/postemergence herbicide test; format: in vivo, Zea mays; settings: Postemergence
Method in brief: (§1)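 Formulated compound (non-phytotoxic solvent, surfactant) sprayed pre- onto soil of seeded loam/sand pots or post- onto seedlings at 1–2 leaves; ~10 d greenhouse; 0–100 visual control rating versus untreated.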

ducksalad = experiment: Test B flooded paddy test; format: in vivo, Heteranthera limosa; settings: 500 g ai/ha, Flood; scale of 0 to 100 where 0 is no effect and 100 is complete control
Method in brief: (§2)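 Treatment was made at the 2-leaf stage by dosing the standing floodwater, kept 3 cm above soil level for the whole test. Greenhouse exposure lasted 13 to 15 days. Response is a visual percent rating relative to controls, where a dash indicates no test result.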

wheat = experiment: Test A pre-/postemergence herbicide test; format: in vivo, Triticum aestivum; settings: Postemergence
Method in brief: as §1

pigweed = experiment: Test A pre-/postemergence herbicide test; format: in vivo, Amaranthus retroflexus
Method in brief: as §1

giant foxtail = experiment: Test A pre-/postemergence herbicide test; format: in vivo, Setaria faberii
Method in brief: as §1

barnyardgrass [1] = experiment: Test B flooded paddy test; format: in vivo, Echinochloa crus-galli; settings: 500 g ai/ha, Flood; scale of 0 to 100 where 0 is no effect and 100 is complete control
Method in brief: as §2

rice = experiment: Test B flooded paddy test; format: in vivo, Oryza sativa; settings: 500 g ai/ha, Flood; scale of 0 to 100 where 0 is no effect and 100 is complete control
Method in brief: as §2

barnyardgrass [2] = experiment: Test A pre-/postemergence herbicide test; format: in vivo, Echinochloa crus-galli
Method in brief: as §1

galium = experiment: Test A postemergence herbicide test; format: in vivo, Galium aparine
Method in brief: (§3)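 Plants at the one- to two-leaf stage, 2–10 cm tall, grown in loam/sand pots, received postemergence sprays of the test chemicals. After about 10 days in the greenhouse, injury was scored visually against untreated controls on a 0–100 scale (0 none, 100 complete control).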

ragweed = experiment: Test A pre-/postemergence herbicide test; format: in vivo, Ambrosia elatior
Method in brief: as §1

ryegrass, Italian = experiment: Test A pre-/postemergence herbicide test; format: in vivo, Lolium multiflorum
Method in brief: as §1

blackgrass = experiment: Test A postemergence herbicide test; format: in vivo, Alopecurus myosuroides
Method in brief: as §3

kochia = experiment: Test A pre-/postemergence herbicide test; format: in vivo, Kochia scoparia
Method in brief: as §1

sedge, umbrella = experiment: Test B flooded paddy test; format: in vivo, Cyperus difformis; settings: 500 g ai/ha, Flood; scale of 0 to 100 where 0 is no effect and 100 is complete control
Method in brief: as §2

[3] = 125 g ai/ha, 0 to 100 scale, 0 is no effect, 100 is complete control
[4] = 500 g ai/ha, 0 to 100 scale (0 no effect, 100 complete control)
[5] = Postemergence, 125 g ai/ha, visual rating on 0 to 100 scale (0 no effect, 100 complete control), approx. 10 days
[6] = Postemergence, 500 g ai/ha, 0 to 100 scale (0 no effect, 100 complete control)
[7] = Preemergence, 125 g ai/ha, 0 to 100 scale where 0 is no effect and 100 is complete control
[8] = preemergence, 500 g ai/ha, 0 to 100 scale, 0 is no effect and 100 is complete control
[9] = Postemergence, 125 g ai/ha, 0 to 100 scale, 0 is no effect, 100 is complete control
[10] = 125 g ai/ha, visual rating, 0 to 100 scale, 0 no effect, 100 complete control, approximately 10 days, preemergence

SMILES	Plant response rating, Corn (corn; [3])	Plant response rating, Ducksalad (ducksalad)	Plant response rating, Pigweed (pigweed; [8])	Plant response rating, Foxtail, Giant (giant foxtail; [9])	Plant response rating, Foxtail, Giant (giant foxtail; [8])	Plant response rating, Barnyardgrass (barnyardgrass [1])	Plant response rating, Rice (rice)	Plant response rating, Barnyardgrass (barnyardgrass [2]; [9])	Plant response rating, Barnyardgrass (barnyardgrass [2]; [8])	Plant response rating, Galium (galium; [3])	Plant response rating, Ragweed (ragweed; [8])	Plant response rating, Ryegrass, Italian (ryegrass, Italian; [8])	Plant response rating, Blackgrass (blackgrass; [3])	Plant response rating, Kochia (kochia; [9])	Plant response rating, Kochia (kochia; [8])	Plant response rating, Sedge, Umbrella (sedge, umbrella)	Corn plant response rating (0 to 100 scale, 0 is no effect, 100 is complete control) (corn; 500 g ai/ha)	Plant response rating, Wheat (wheat; [3])	Wheat plant response rating (0 to 100 scale, 0 is no effect, 100 is complete control) (wheat; 500 g ai/ha)	Plant response rating, Pigweed (pigweed; [10])	other results
O=C1NCC(c2ccc(Cl)c(Cl)c2)C1C(=O)Nc1ccccc1Cl (racemic) [Compound 273]	0	70	0	20	90	0	0	10	80	0	0	0	0	0	70	0	–	–	–	–	Plant response rating, Corn (corn; [4]): 0; Plant response rating, Wheat (wheat; 125 g ai/ha, visual rating on 0 to 100 scale (0 no effect, 100 complete control), approx. 10 days): 0; Plant response rating, Wheat (wheat; [4]): 0; Plant response rating, Pigweed (pigweed; [5]): 0; Plant response rating, Pigweed (pigweed; [6]): 0; Plant response rating, Pigweed (pigweed; [7]): 0; Plant response rating, Foxtail, Giant (giant foxtail; [6]): 70; Plant response rating, Foxtail, Giant (giant foxtail; [7]): 90; Plant response rating, Barnyardgrass (barnyardgrass [2]; [6]): 30; Plant response rating, Barnyardgrass (barnyardgrass [2]; [7]): 50; Plant response rating, Galium (galium; [4]): 50; Plant response rating, Ragweed (ragweed; [5]): 0; Plant response rating, Ragweed (ragweed; [6]): 0; Plant response rating, Ragweed (ragweed; [7]): 0; Plant response rating, Ryegrass, Italian (ryegrass, Italian; [5]): 0; Plant response rating, Ryegrass, Italian (ryegrass, Italian; [6]): 0; Plant response rating, Ryegrass, Italian (ryegrass, Italian; [7]): 0; Plant response rating, Blackgrass (blackgrass; [4]): 0; Plant response rating, Kochia (kochia; [6]): 0; Plant response rating, Kochia (kochia; [7]): 0
CCCN1CC(c2ccc(C(F)(F)F)cc2)C(C(=O)Nc2ccccc2F)C1=O (stereo not drawn) [Compound 181]	0	0	0	0	70	0	0	0	0	0	0	0	40	10	80	0	0	0	0	0	Plant response rating, Pigweed (pigweed; [9]): 0; Pigweed plant response rating (0 to 100 scale, 0 is no effect, 100 is complete control) (pigweed; Postemergence, 500 g ai/ha): 50; Plant response rating, Foxtail, Giant (giant foxtail; [10]): 10; Foxtail, Giant plant response rating (0 to 100 scale, 0 is no effect, 100 is complete control) (giant foxtail; Postemergence, 500 g ai/ha): 0; Plant response rating, Barnyardgrass (barnyardgrass [2]; [10]): 0; Barnyardgrass plant response rating (0 to 100 scale, 0 is no effect, 100 is complete control) (barnyardgrass [2]; Postemergence, 500 g ai/ha): 0; Galium plant response rating (0 to 100 scale, 0 is no effect, 100 is complete control) (galium; 500 g ai/ha): 0; Plant response rating, Ragweed (ragweed; [10]): 0; Plant response rating, Ragweed (ragweed; [9]): 0; Ragweed plant response rating (0 to 100 scale, 0 is no effect, 100 is complete control) (ragweed; Postemergence, 500 g ai/ha): 0; Plant response rating, Ryegrass, Italian (ryegrass, Italian; [10]): 0; Plant response rating, Ryegrass, Italian (ryegrass, Italian; [9]): 0; Ryegrass, Italian plant response rating (0 to 100 scale, 0 is no effect, 100 is complete control) (ryegrass, Italian; Postemergence, 500 g ai/ha): 0; Blackgrass plant response rating (0 to 100 scale, 0 is no effect, 100 is complete control) (blackgrass; 500 g ai/ha): 50; Plant response rating, Kochia (kochia; [10]): 50; Kochia plant response rating (0 to 100 scale, 0 is no effect, 100 is complete control) (kochia; Postemergence, 500 g ai/ha): 70
CCCN1CC(c2ccc(C(F)(F)F)cc2)C(C(=O)Nc2cccc(F)c2F)C1=O (stereo not drawn) [Compound 182]	0	30	0	0	70	0	0	0	0	0	0	0	0	0	0	0	0	0	0	0	Plant response rating, Pigweed (pigweed; [9]): 0; Pigweed plant response rating (0 to 100 scale, 0 is no effect, 100 is complete control) (pigweed; Postemergence, 500 g ai/ha): 0; Plant response rating, Foxtail, Giant (giant foxtail; [10]): 50; Foxtail, Giant plant response rating (0 to 100 scale, 0 is no effect, 100 is complete control) (giant foxtail; Postemergence, 500 g ai/ha): 10; Plant response rating, Barnyardgrass (barnyardgrass [2]; [10]): 0; Barnyardgrass plant response rating (0 to 100 scale, 0 is no effect, 100 is complete control) (barnyardgrass [2]; Postemergence, 500 g ai/ha): 0; Galium plant response rating (0 to 100 scale, 0 is no effect, 100 is complete control) (galium; 500 g ai/ha): 0; Plant response rating, Ragweed (ragweed; [10]): 0; Plant response rating, Ragweed (ragweed; [9]): 0; Ragweed plant response rating (0 to 100 scale, 0 is no effect, 100 is complete control) (ragweed; Postemergence, 500 g ai/ha): 0; Plant response rating, Ryegrass, Italian (ryegrass, Italian; [10]): 0; Plant response rating, Ryegrass, Italian (ryegrass, Italian; [9]): 0; Ryegrass, Italian plant response rating (0 to 100 scale, 0 is no effect, 100 is complete control) (ryegrass, Italian; Postemergence, 500 g ai/ha): 0; Blackgrass plant response rating (0 to 100 scale, 0 is no effect, 100 is complete control) (blackgrass; 500 g ai/ha): 0; Plant response rating, Kochia (kochia; [10]): 0; Kochia plant response rating (0 to 100 scale, 0 is no effect, 100 is complete control) (kochia; Postemergence, 500 g ai/ha): 0
